“And” between values parts separate entries of the source, which are not always exact repeats. Equal entries are not always repeated. Toxic doses and inconclusive results are not listed.

Here are results for 19 compounds from PubChem BioAssay AID330 (DTP/NCI, 2004).

For this assay, the system named is P388 leukemia ip, CD2F1 mice, survival T/C. Nature of the assay: NCI In Vivo Anticancer Drug Screen. Data for tumor model P388 Leukemia (intraperitoneal) in CD2F1 (CDF1) mice. The note with it: endpoint: median survival time, higher = longer survival. An outline of the steps: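 Mice carrying the transplanted tumor received test compound or vehicle. Survival was recorded in each group, and the value is the treated-group measurement divided by that of the vehicle-treated control group.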

The mark [1] stands for this setting: dose: 60.0 mg/kg/injection, schedule: Q01DX005 (ip), vehicle: saline with Tween-80.
The mark [2] stands for this setting: dose: 12.5 mg/kg/injection, schedule: Q04DX002 (ip), vehicle: saline with Tween-80.
Where [3] appears, read: dose: 25.0 mg/kg/injection, schedule: Q04DX002 (ip), vehicle: saline with Tween-80.
[4] abbreviates: dose: 50.0 mg/kg/injection, schedule: Q04DX002 (ip), vehicle: saline with Tween-80.
Setting [5] is: dose: 50.0 mg/kg/injection, schedule: Q01DX009 (ip), vehicle: saline with Tween-80.
The mark [6] stands for this setting: dose: 100.0 mg/kg/injection, schedule: Q01DX009 (ip), vehicle: saline with Tween-80.
Where [7] appears, read: dose: 200.0 mg/kg/injection, schedule: Q01DX009 (ip), vehicle: saline with Tween-80.
The mark [8] stands for this setting: dose: 50.0 mg/kg/injection, schedule: Q01DX009 (ip), vehicle: saline.
Setting [9] is: dose: 100.0 mg/kg/injection, schedule: Q01DX009 (ip), vehicle: saline.
Setting [10] is: dose: 200.0 mg/kg/injection, schedule: Q01DX009 (ip), vehicle: saline.

As to `CC1(C)OC(=O)C(=Cc2ccc(-c3cc(C(F)(F)F)cc(C(F)(F)F)c3)o2)C(=O)O1`, the T/C (dose: 50.0 mg/kg/injection, schedule: Q01DX005 (ip), vehicle: Klucel (hydroxypropylcellulose) (HPC)) is 104 % of control; the T/C (dose: 100.0 mg/kg/injection, schedule: Q01DX005 (ip), vehicle: Klucel (hydroxypropylcellulose) (HPC)) was 100 % of control; the T/C (dose: 200.0 mg/kg/injection, schedule: Q01DX005 (ip), vehicle: Klucel (hydroxypropylcellulose) (HPC)) was 92 % of control.
Turning to `O=C1CC(=O)N2C(=O)CC(=O)N12`, the T/C under setting [1] was 99 % of control; the T/C (dose: 120.0 mg/kg/injection, schedule: Q01DX005 (ip), vehicle: saline with Tween-80) is 103 % of control; the T/C (dose: 240.0 mg/kg/injection, schedule: Q01DX005 (ip), vehicle: saline with Tween-80) was 97 % of control.
With `Cc1ccc(CCNC(=O)c2c3nc4c(C(=O)NCCc5ccc(C)cc5)ccc(C)c4oc-3c(C)c(=O)c2N)cc1`, the T/C is, setting by setting: (dose: 25.0 mg/kg/injection, schedule: Q04DX003 (ip), vehicle: DMSO) 98 % of control; (dose: 50.0 mg/kg/injection, schedule: Q04DX003 (ip), vehicle: DMSO) 99 % of control; (dose: 100.0 mg/kg/injection, schedule: Q04DX003 (ip), vehicle: DMSO) 91 % of control.
`[Cl][Pt+2][Cl].[NH-]CC([NH-])c1ccccc1` (stereo not drawn): the T/C reads like this: (dose: 6.25 mg/kg/injection, schedule: Q04DX002 (ip), vehicle: saline with Tween-80) 179 % of control; (dose: 12.5 mg/kg/injection, schedule: Q01DX001 (ip), vehicle: Klucel (hydroxypropylcellulose) (HPC)) 152 % of control; under setting [2], 194 % of control; (dose: 25.0 mg/kg/injection, schedule: Q01DX001 (ip), vehicle: Klucel (hydroxypropylcellulose) (HPC)) 179 % of control; under setting [3], 220 % of control; (dose: 50.0 mg/kg/injection, schedule: Q01DX001 (ip), vehicle: Klucel (hydroxypropylcellulose) (HPC)) 157 % of control and 163 % of control.
`O=C1c2cc([N+](=O)[O-])cc3cc([N+](=O)[O-])cc(c23)C(=O)N1CCNCCNCCNCCN1C(=O)c2cc([N+](=O)[O-])cc3cc([N+](=O)[O-])cc(c23)C1=O`: the T/C under setting [2] was 112 % of control, the T/C under setting [3] is 121 % of control and the T/C under setting [4] is 122 % of control.
With `COc1ccc(-n2c(N)c(C#N)c3c(c2=S)CCC3)cc1`, the T/C is, setting by setting: (dose: 50.0 mg/kg/injection, schedule: Q01DX005 (ip), vehicle: Klucel + Tween-80) 106 % of control; (dose: 100.0 mg/kg/injection, schedule: Q01DX005 (ip), vehicle: Klucel + Tween-80) 99 % of control; (dose: 200.0 mg/kg/injection, schedule: Q01DX005 (ip), vehicle: Klucel + Tween-80) 92 % of control.
As for `CN(C)CCC(c1ccccc1)C(CO)c1ccccc1` (stereo not drawn), the T/C (dose: 100.0 mg/kg/injection, schedule: Q01DX001 (ip), vehicle: Klucel (hydroxypropylcellulose) (HPC)) was 116 % of control and the T/C (dose: 200.0 mg/kg/injection, schedule: Q01DX001 (ip), vehicle: Klucel (hydroxypropylcellulose) (HPC)) was 102 % of control.
Consider `CCCOC(=O)C(F)C(Br)C(=O)OCCC` (stereo not drawn), for which the T/C was 100 % of control and 107 % of control (dose: 25.0 mg/kg/injection, schedule: Q01DX009 (ip), vehicle: saline with Tween-80); 105 % of control and 120 % of control under setting [5]; 111 % of control and 118 % of control under setting [6]; 123 % of control under setting [7].
Consider `Clc1ccccc1CSCc1c(CSCc2ccccc2Cl)c(CSCc2ccccc2Cl)c(CSCc2ccccc2Cl)c(CSCc2ccccc2Cl)c1CSCc1ccccc1Cl`, for which the T/C by setting is: under setting [5], 102 % of control; under setting [6], 100 % of control; under setting [7], 100 % of control.
As to `COc1ccc(/C=N/NC(=S)NC23CC4CC(CC(C4)C2)C3)cc1OC`, the T/C reads like this: (dose: 15.0 mg/kg/injection, schedule: Q01DX005 (ip), vehicle: saline with Tween-80) 93 % of control; (dose: 30.0 mg/kg/injection, schedule: Q01DX005 (ip), vehicle: saline with Tween-80) 89 % of control; under setting [1], 89 % of control.
In the case of `Cc1cc2[nH]c3ccccc3n2c(=O)c1N=Nc1ccccc1`, the T/C runs as follows: (dose: 87.5 mg/kg/injection, schedule: Q04DX002 (ip), vehicle: Klucel (hydroxypropylcellulose) (HPC)) 101 % of control; (dose: 175.0 mg/kg/injection, schedule: Q04DX002 (ip), vehicle: Klucel (hydroxypropylcellulose) (HPC)) 92 % of control; (dose: 350.0 mg/kg/injection, schedule: Q04DX002 (ip), vehicle: Klucel (hydroxypropylcellulose) (HPC)) 99 % of control.
On to `O=CNNc1nn2cnnc2c2ccccc12`, for which the T/C was 97 % of control under setting [8], 94 % of control under setting [9] and 102 % of control under setting [10].
As to `CC(C)C(Nc1ncnc2c1CCc1ccccc1-2)C(=O)O` (stereo not drawn), the T/C runs as follows: under setting [4], 95 % of control; (dose: 100.0 mg/kg/injection, schedule: Q04DX002 (ip), vehicle: saline with Tween-80) 100 % of control.
For `COc1cc2c(=O)n3c4c(cccc4c2cc1OC)CCC3`, the T/C reads like this: (dose: 25.0 mg/kg/injection, schedule: Q01DX009 (ip), vehicle: other) 94 % of control; (dose: 50.0 mg/kg/injection, schedule: Q01DX009 (ip), vehicle: other) 90 % of control; (dose: 100.0 mg/kg/injection, schedule: Q01DX009 (ip), vehicle: other) 87 % of control; (dose: 200.0 mg/kg/injection, schedule: Q01DX009 (ip), vehicle: other) 92 % of control; (dose: 400.0 mg/kg/injection, schedule: Q01DX009 (ip), vehicle: other) 100 % of control.
As to `Nc1c(S(=O)(=O)O)cc(Nc2cccc(CO)c2)c2c1C(=O)c1ccccc1C2=O`, the T/C is, setting by setting: (dose: 12.5 mg/kg/injection, schedule: Q01DX001 (ip), vehicle: saline) 99 % of control; (dose: 25.0 mg/kg/injection, schedule: Q01DX001 (ip), vehicle: saline) 99 % of control; (dose: 50.0 mg/kg/injection, schedule: Q01DX001 (ip), vehicle: saline) 98 % of control; (dose: 100.0 mg/kg/injection, schedule: Q01DX001 (ip), vehicle: saline) 106 % of control.
Take `O=C1NN2CCCN=C2c2cnccc21`: the T/C (dose: 50.0 mg/kg/injection, schedule: Q01DX005 (ip), vehicle: saline) is 110 % of control; the T/C (dose: 100.0 mg/kg/injection, schedule: Q01DX005 (ip), vehicle: saline) is 97 % of control; the T/C (dose: 200.0 mg/kg/injection, schedule: Q01DX005 (ip), vehicle: saline) is 89 % of control.
On to `Nc1nc(-c2ccccc2N=NN2CCN(N=Nc3ccccc3-c3nc(N)c4ccccc4n3)CC2)nc2ccccc12`, for which the T/C by setting is: (dose: 0.78 mg/kg/injection, schedule: Q01DX009 (ip), vehicle: Klucel (hydroxypropylcellulose) (HPC)) 104 % of control; (dose: 1.56 mg/kg/injection, schedule: Q01DX009 (ip), vehicle: Klucel (hydroxypropylcellulose) (HPC)) 102 % of control; (dose: 3.12 mg/kg/injection, schedule: Q01DX009 (ip), vehicle: Klucel (hydroxypropylcellulose) (HPC)) 95 % of control; (dose: 6.25 mg/kg/injection, schedule: Q01DX009 (ip), vehicle: Klucel (hydroxypropylcellulose) (HPC)) 100 % of control.
As for `O=C1NC(O)c2cc([N+](=O)[O-])ccc2O1` (stereo not drawn), the T/C is 100 % of control and 107 % of control (dose: 50.0 mg/kg/injection, schedule: Q01DX005 (ip), vehicle: saline with Tween-80); 102 % of control and 115 % of control (dose: 100.0 mg/kg/injection, schedule: Q01DX005 (ip), vehicle: saline with Tween-80); 100 % of control and 120 % of control (dose: 200.0 mg/kg/injection, schedule: Q01DX005 (ip), vehicle: saline with Tween-80).
On to `CNC(=O)N(C)C/C=C/CN(C)C(=O)NC`, for which the T/C by setting is: under setting [8], 105 % of control; under setting [9], 102 % of control; under setting [10], 102 % of control.
